Laboratory results: patent US11633458B2, “Compositions and methods for treating melanoma” (University of Virginia Patent Foundation, priority 2013, dated 2023)

Experiments:
[1] = tested on: melanoma cell lines VMM1, DM13, DM93 and DM122; test: Intracellular staining of chemokines CCL2-5, CXCL9, CXCL12 by flow cytometry after overnight TLR agonist stimulation with or without IFNγ; type: cell-based, human; details: TLR agonist alone
Experimental: (§1) Stained cells were collected on the FACSCalibur instrument (BD Biosciences) and analyzed with FlowJo 8.8.6 software (TreeStar, Ashland, Oreg.). Analyses were conducted on live cells (95%) as defined by forward and side-angle scatter. Gates were set based on isotype-matched (ISO) controls or fluorescence-minus-one (FMO) controls.
(§2) These were used with or without rh-IFNγ (1000 IU/mL; PeproTech). After stimulation, cells were detached using Accutase.
(§3) Cells were fixed and permeablilized using the BD Cytofix/Cytoperm kit and then stained with the indicated antibodies. Staining antibodies: CCL2-PE, CCL3-PE, CCL4-PE, CCL5-PE, CXCL10-PE (BD Pharmingen), CXCL9-PE, CXCL12-APC (R&D Systems), IgG1-PE, and IgG2α-PE (Caltag). Flow cytometric analyses were conducted as described.

DM13 cells = test: TLR agonist dose response assay, CXCL10 producing cells by flow cytometry, constant IFNγ; type: cell-based, human; details: for effect on CXCL10 induction: in the presence of IFNγ, even at much higher concentrations than in prior experiments; for optimal concentration for CXCL10 production: constant concentration of IFNγ
Experimental: FIGS. 3A-3D. […] Melanoma cells were analyzed for induced chemokine production after overnight stimulation with the indicated TLR agonists with (+) or without (−) IFNγ. FIG. 3A-FIG. 3B (12 panels/images each). […] Scale bars represent 100 μm. FIG. 3C. Graphic illustration of ELISA assays to detect CXCL10 from supernatants of stimulated melanoma cells DM13 (left) and VMM1 (right). FIG. 3D. TLR agonist dose response assay. […] Data are from 2 independent experiments.
as §2, §3

[2] = tested on: melanoma cell lines VMM1, DM13, DM93 and DM122; test: Intracellular CXCL10 staining by flow cytometry after overnight stimulation with TLR agonists with or without IFNγ; type: cell-based, human; details: averaged across the four melanoma lines, flow cytometry (FIG. 2B)
Experimental: as §1, §2, §3

21 melanoma cell lines = test: TLR2 and TLR6 staining by flow cytometry with or without IFNγ; type: cell-based, human; details: IFNγ stimulation, data not shown
Experimental: Melanoma cell lines were seeded into 6-well plates at 1×10^6 cells/well in RPMI and stimulated overnight in the presence or absence of recombinant human IFNγ (rh-IFNγ, 1000 IU/mL; PeproTech, Rocky Hill, N.J.). After stimulation, cells were detached using Accutase (Millipore, Billerica, Mass.), stained with indicated antibodies and fixed using Cytofix (BD Biosciences, San Jose, Calif.). Surface staining antibodies: TLR2-Alexa647, Streptavidin-PE (BD Pharmigen, San Jose, Calif.), TLR6-Biotin (eBioscience, San Diego, Calif.), TLR4-APC (R&D Systems, Minneapolis, Minn.). Intracellular staining: cells were fixed and permeabilized using the BD Cytofix/Cytoperm kit (BD Biosciences) and stained with appropriate antibodies: TLR7-CFS, IgG2α-CFS (R&D Systems), TLR3-PE, TLR9-APC (eBioscience), TLR8-Alexa488 (Dendritics, San Diego, Calif.), IgG1-PE, and IgG2α-PE (Caltag, Towcester, UK).
as §1

[3] = tested on: cells from freshly resected human melanoma metastases; test: CXCL10 production by cells of freshly resected melanoma metastases, flow cytometry; type: cell-based; details: patients 1-3 (FIG. 6A)
Excerpt: FIGS. 6A-6E. Patient melanomas generate CXCL10 in response to TLR2/6 agonist and IFNγ. […] Cell subsets were defined as: melanoma (CD45^negS100^+), endothelial (S100^negCD45^negCD105^+), B-cell (CD20^+), DC (CD11c^+HLADR^+), macrophage (CD14^+), NK-cell (CD56^+) and T-cell (CD3^+). FIG. 6A. The percent of melanoma cells that are CXCL10^+ from patient 1 (top), patient 2 (middle) and patient 3 (bottom) tumors after stimulation with the indicated conditions (left panel). MFI for CXCL10 expression of melanoma cells from patient 1 melanoma (top) and patient 2 melanoma (middle) patient 3 melanoma (bottom) (right panel). FIG. 6B-FIG. 6D. […] Graph of CXCL10 measured by ELISA assay, cells are from patient 1 tumor.
Having observed production of CCL3 and CXCL10 by cultured human melanoma cell lines in vitro, we asked whether the same would be observed with melanoma cells isolated from fresh surgically-excised human metastases. TLR2 and TLR6 are expressed on some immune cell subsets (31; 32), thus we also assessed whether TLR2/6 agonists and IFNγ may impact CXCL10 production from immune cell subsets in patient tumor specimens. […] The percentage of live cells from tumor assessed by viability marker were approximately 60%, 50%, 70%, and 40% for patients 1-4 respectively (data not shown).

[4] = tested on: cells from fresh surgically isolated melanoma metastases; test: CXCL10 ELISA of supernatants of stimulated cells from fresh melanoma metastases; type: cell-based, human; details: patient 1 tumor (FIG. 6E)
Experimental: Melanoma cell lines or cells from patient samples were stimulated with TLR agonists as described, but without GolgiStop. Media containing the cell-secreted chemokines were collected and centrifuged to remove cell debris. CXCL10 was measured using the BD OptEIA human IP-10 ELISA Set with BD OptEIA buffers (BD Biosciences).

[5] = tested on: melanoma cell lines VMM1, DM13, DM93 & VMM39; test: Gene expression profiling (gene array) of melanoma cell lines after IFNγ or TLR2/6 agonist + IFNγ; type: cell-based, human; details: Vs No treatment; Anova p≤0.005, matched comparisons
Experimental: To assess global effects of TLR2/6 agonists and IFNγ stimulation on melanoma, gene expression profiling of melanoma cell lines was performed.

breast cancer cell lines = test: CXCL10 production by breast cancer cell lines, flow cytometry; type: cell-based, human; details: n=4; printed 'LPS, PAM3CSK4, and MALP-2+IFNγ', +IFNγ may apply to all three
Experimental: Breast cancer cells were stimulated with TLR agonists overnight alone or in combination with IFNγ (IFNγ stimulation indicated as +). CXCL10 production was assessed by flow cytometry from the indicated breast cancer cell lines (n=4).

lung cancer cell lines = test: CXCL10 production by lung cancer cell lines, flow cytometry; type: cell-based, human; details: lung cancer cell lines n=8 (FIG. 16)
Experimental: FIG. 16 (line graph): Treatment of Lung Cancer cells with TLR1/2 agonists-TLR1/2 agonists can induce some CXCL10 production from lung cancer cell lines. Lung cancer cells were stimulated with TLR agonists overnight alone or in combination with IFNγ (IFNγ stimulation indicated as +). CXCL10 production was assessed by flow cytometry from the indicated lung cancer cell lines (n=8).

poly-ICLC
chemokine production [1]: little chemokine production
effect on CXCL10 induction (DM13 cells): little effect

CC(C)Cn1cnc2c(N)nc3ccccc3c21 [imiquimod]
chemokine production [1]: little chemokine production
effect on CXCL10 induction (DM13 cells): little effect

interferon gamma [IFNγ, recombinant human IFNγ (PeproTech), used at 1000 IU/mL]
percent of cells producing CXCL10 [2]: 7%
expression of TLR2 or TLR6 (21 melanoma cell lines): neither was impacted
CXCL10 production by melanoma cells (S100+CD45neg), percentage of CXCL10+ cells and MFI [3]: produced CXCL10
CXCL10 in supernatants [4]: ~400 pg/mL
fold change of gene induction, CXCL9 [5]: 20.7 fold change
fold change of gene induction, CXCL10 [5]: 36.5 fold change
fold change of gene induction, GBP1 [5]: 50.6 fold change
fold change of gene induction, GBP4 [5]: 84.9 fold change
fold change of gene induction, IFI30 [5]: 14.4 fold change
fold change of gene induction, IFITM1 [5]: 14.4 fold change
fold change of gene induction, IRF1 [5]: 30.2 fold change
fold change of gene induction, OAS2 [5]: 24.1 fold change
fold change of gene induction, TNFSF10 [5]: 25.7 fold change
fold change of gene induction, XAF1 [5]: 22.8 fold change

Pam3CysSerLys4 [Pam3CSK4]
cell lines with induced CXCL10 production (breast cancer cell lines): 2/4
CXCL10 production (lung cancer cell lines): some CXCL10 production can be induced

lipopolysaccharide [LPS]
chemokine production [1]: little chemokine production
concentration inducing CXCL10 at levels comparable to MALP-2 or FSL-1 and IFNγ (DM13 cells; +IFNγ (FIG. 3D)): 100 µg/mL
concentration inducing comparable levels of CXCL10 (DM13 cells; in combination with IFNγ, compared with TLR2/6 agonists): ≥ 100 µg
cell lines with induced CXCL10 production (breast cancer cell lines): 2/4

fibroblast-stimulating lipopeptide-1 [FSL-1]
chemokine production [1]: little chemokine production
optimal concentration for CXCL10 production (DM13 cells): 5 µg/mL

macrophage-activating lipopeptide 2 [MALP-2]
chemokine production [1]: little chemokine production
optimal concentration for CXCL10 production (DM13 cells): 0.1 µg/mL
